Cn1c([N+](=O)[O-])cnc1N1CCN(S(C)(=O)=O)C1=O
solubility (mole fraction)
Conditions | 293.2 K | 298.2 K | 303.2 K | 308.2 K | 313.2 K
in 1,4-butanediol | 0.000939 | 0.00132 | 0.00176 | 0.0024 | 0.00315
in 1,4-dioxane | 0.00814 | 0.0106 | 0.0127 | 0.0158 | 0.0189
in DMAc | 0.0363 | 0.0481 | 0.0617 | 0.0765 | 0.0963
in DMF | 0.0406 | 0.0542 | 0.0683 | 0.083 | 0.103
in DMSO | 0.057 | 0.0702 | 0.085 | 0.0987 | 0.114
in NMP | 0.0796 | 0.116 | 0.181 | 0.262 | 0.366
in ethanol | 0.000378 | 0.00048 | 0.000582 | 0.000726 | 0.000851
in ethylene glycol | 0.000879 | 0.00149 | 0.00228 | 0.00358 | 0.00558
in formamide | 0.0476 | 0.0591 | 0.0771 | 0.0938 | 0.109
in glycerin | 0.000743 | 0.000861 | 0.000984 | 0.00114 | 0.00128
in isopropanol | 0.000315 | 0.000368 | 0.000447 | 0.000527 | 0.000659
in methanol | 0.000481 | 0.000539 | 0.000624 | 0.000739 | 0.000871
in n-propanol | 0.000356 | 0.000436 | 0.000541 | 0.000673 | 0.000832
in propylene glycol | 0.00136 | 0.00232 | 0.00347 | 0.00538 | 0.00836
in water | 2.86e-06 | 3.21e-06 | 3.66e-06 | 4.24e-06 | 5.06e-06

Conditions | solubility (mole fraction)
in PEG-200, 293.2 K | 0.00829
in PEG-200, 298.2 K | 0.011
in PEG-200, 303.2 K | 0.0153
in PEG-200, 308.2 K | 0.0205
in PEG-200, 313.2 K | 0.0271
in PEG-400, 293.2 K | 0.0123
in PEG-400, 298.2 K | 0.0176
in PEG-400, 303.2 K | 0.0247
in PEG-400, 308.2 K | 0.0343
in PEG-400, 313.2 K | 0.0462
in PEG-600, 293.2 K | 0.015
in PEG-600, 298.2 K | 0.0218
in PEG-600, 303.2 K | 0.0302
in PEG-600, 308.2 K | 0.0429
in PEG-600, 313.2 K | 0.058

— BigSolDB 2.1
